What was measured:
[1] = target: T1, ELAM-1 (Homo sapiens, UniProt P16581); experiment: Liposome inhibition of neutrophil (PMN) adhesion to IL-1 activated endothelium (HUVEC); format: cell-based; conditions: for inhibition of neutrophil adhesion to activated endothelium: E-Selectin dependent binding assay, liposomes
T1 construct: adhesion of neutrophils (PMN)
T1 sequence (P16581 22-610): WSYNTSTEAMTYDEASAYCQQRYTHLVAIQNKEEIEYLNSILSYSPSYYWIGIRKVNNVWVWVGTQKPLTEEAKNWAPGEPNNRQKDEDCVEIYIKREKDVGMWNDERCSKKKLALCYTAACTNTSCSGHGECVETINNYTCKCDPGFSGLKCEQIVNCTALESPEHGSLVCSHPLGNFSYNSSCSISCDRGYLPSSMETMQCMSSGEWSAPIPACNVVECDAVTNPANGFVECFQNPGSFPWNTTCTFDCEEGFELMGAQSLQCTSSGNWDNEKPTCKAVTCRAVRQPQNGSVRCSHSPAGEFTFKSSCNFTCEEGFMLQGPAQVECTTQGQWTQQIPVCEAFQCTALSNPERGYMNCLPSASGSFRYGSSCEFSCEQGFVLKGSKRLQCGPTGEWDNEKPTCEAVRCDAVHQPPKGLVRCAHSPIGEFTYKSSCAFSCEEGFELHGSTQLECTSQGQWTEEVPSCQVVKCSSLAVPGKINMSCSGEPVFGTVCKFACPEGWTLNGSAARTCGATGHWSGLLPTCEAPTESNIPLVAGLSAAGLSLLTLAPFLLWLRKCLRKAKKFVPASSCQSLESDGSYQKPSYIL
Description: Two synthetic compounds were prepared. One comprised sialic acid in an α2,3 linkage, as in naturally occurring SLe^x. The second comprised sialic acid in an α2,6 linkage, to examine the importance of the nature of the linkage to receptor binding.
Liposomes were prepared by adding 12 μl of absolute ethanol (ETOH) to each tube, warming briefly in a 50° C. water bath and sonicating for 2 min. 238 μl of warm phosphate buffered saline (PBS) was added slowly to each tube while sonicating and sonication was continued for a further 10 min. The final concentration of stock liposomes was 400 μg glycolipids/ml in 5% ETOH/PBS.
1. HUVECs, PMNs, and liposomes were prepared as described above.
2. The stimulated HUVEC assay plate was removed from the incubator and the wells were washed two times with RPMI 1640 containing 5 mg/ml bovine serum albumin (BSA).
3. Liposomes stocks were diluted in the HBSS/BSA buffer to make solutions equal to: 40 μg/ml, 30 μg/ml, 15 μg/ml, 7.5 μg/ml, 3.75 μg/ml and 1.87 μg/ml. Similar dilutions were prepared from a control stock consisting of PBS-5% ETOH.
4. The medium was removed from the wells of the assay plate with a pasteur pipette, a few wells at a time.
5. 0.05 ml of each liposome suspension was added to duplicate wells on the stimulated assay plate. Control wells received the liposome buffer containing ethanol HBSS and BSA at the same concentrations as in the liposome containing wells. Control buffer was plated on unstimulated and stimulated HUVEC. Liposome containing samples were added to stimulated wells only.
6. The plates were incubated for 40 min at 37° C. and then 50 μl of PMNs were added to the assay wells. The final concentration of cells was 5×10^5 well in 100 μl.
7. The assay plate was returned to the incubator (5% CO2, 37° C.) for 8 min.
8. Unbound cells were removed from the wells of the assay plates by systematic resuspension using a P200 multichannel pipette followed by addition and removal of 0.2 ml of medium.
9. All of the medium was removed from the wells and 50 μl of solubilization buffer was added. This consisted of citrate buffer (24.3 ml of 0.1M Citric acid, 10.5 g/500 ml+25.7 ml of 0.2M dibasic sodium phosphate, 14.2 g/500 ml and SQ H2 O to 100 ml) containing 0.1% NP-40 detergent.
10. The plate was incubated on a rotary shaker for 10 min and then 0.05 ml of OPDA solution [8 mg o-phenylene-diamine, Sigma cat# P-1526, 8 μl of 30% H2 O2 and 10 ml of citrate buffer (as above)] was added to each well. The reaction was allowed to develop for 15 min and then 25 μl of 4N H2 SO4 was added to each well to stop the reaction.
11. A reagent bulk was prepared by mixing 100 μl volumes of the solubilization buffer and the OPDA solution with 50 μl of 4N H2 SO4.
12. 100 μl of supernatant was removed from each of 2 wells and transferred to a flexible ELISA assay plate (Falcon). The plate was scanned spectrophotometrically at 492 nm within 30 min.

[2] = target: T1, ELAM-1; experiment: as above; format: cell-based; conditions: 0.47 μg/ml; Control +IL-1β 0.782
[3] = test system: selectin receptors; conditions: Berg et al.; cited from earlier work
[4] = 1.87 μg/ml, Control +IL-1β 0.725
[5] = 3.75 μg/ml, Control +IL-1β 0.698
[6] = 7.5 μg/ml, Control +IL-1β 0.658

Compound	Mean absorbance at 492 nm (bound neutrophils) [1, 4]	Mean absorbance at 492 nm (bound neutrophils) [1, 5]	Mean absorbance at 492 nm (bound neutrophils) [1, 6]	Mean absorbance at 492 nm (bound neutrophils) ([1]; 15 μg/ml, Control +IL-1β 0.740)	Mean absorbance at 492 nm (bound neutrophils) ([1]; 20 μg/ml, Control +IL-1β 0.657)	inhibition of neutrophil adhesion to activated endothelium [1]	Mean absorbance at 492 nm (bound neutrophils) [2]	recognition by selectin receptors [3]
NeuAcα2,3Galβ1,4(Fucα1,3) GlcNAcβ1,3Galβ1,4Glcβ1,1Ceramide [(2,3) SLe^x]	0.580	0.483	0.359	0.270	0.156	inhibit neutrophil adhesion to activated endothelium	0.642	–
CC(=O)N[C@H]1[C@H]([C@H](O)[C@H](O)CO)O[C@@](O[C@H]2[C@@H](O)[C@@H](CO)O[C@@H](O[C@H]3[C@H](O[C@@H]4O[C@@H](C)[C@@H](O)[C@@H](O)[C@@H]4O)[C@@H](CO)OC(O)[C@@H]3NC(C)=O)[C@@H]2O)(C(=O)O)C[C@@H]1O (stereo partly drawn) [SLe^a, NeuAcα2,3Galβ1,3(Fucα1,4)GlcNAcβ1--]	–	–	–	–	–	–	–	recognized by selectin receptors
NeuAcα2,6Galβ1,4(fucα1,3)GlcNacβ1,3Galβ1,4Glcβ1,1Ceramide [(2,6) SLe^x, reference compound]	0.690	0.655	0.602	0.636	0.663	not	0.695	–

Source: patent publication US5753631A, “Intercellular adhesion mediators” (Cytel Corporation, priority 1995, dated 1998)
